Laboratory results taken from publication PMC9458062, “^131I-C19 Iodide Radioisotope and Synthetic I-C19 Compounds as K-Ras4B–PDE6δ Inhibitors: A Novel Approach against Colorectal Cancer—Biological Characterization, Biokinetics and Dosimetry” (Molecules, 2022).

Legend:
[1] = tested on: bone marrow polychromatic erythrocytes; experiment: Genotoxicity, bone marrow micronucleus assay; conditions: 24 h, per 2000 PCEs (vehicle 7 ± 2)
Experimental: The test compounds were intraperitoneally administered once, as a solution, at a concentration of 15 mg/kg of 5-fluorouracil (5-Fu) and 30 mg/kg of C19 or I-C19. Bone marrow cells were obtained 24 h after treatment and stained with Giemsa-Wright (Diff-Quick; Harleco; Gibbstown, NJ, USA). Two-thousand polychromatic erythrocytes were counted per animal using an optical microscope at 100× magnification to determine the number of micronucleated polychromatic erythrocytes.

colon adenocarcinoma = experiment: AOM/DSS colorectal cancer mouse model; format: in vivo, C57BL/6 male mice; conditions: AOM/DSS mice
Experimental: Aberrant glands formed these lesions, and the cells that formed them presented atypical nuclei with evident nucleoli and loss of mucus production. The percentage of mice colorectal tissue affected with these lesions was considered as the percentage of colon adenocarcinoma in mice.
Six-week-old C57BL/6 male mice, with a weight of approximately 20 g, were intraperitoneally injected with a single dose of azoxymethane (AOM) (10 mg/kg). […] For the control group, the same procedure was performed with normal intraperitoneal saline and pure drinking water instead of the AOM/DSS treatment.
Paraffin sections of colon tumor samples were deparaffinized in xylene and rehydrated in a series of graded alcohols. Antigens were retrieved in 0.01 M sodium citrate buffer and 0.1M EDTA-Tris buffer (Novocastra™ Epitope Retrieval Solutions, cat. RE7113; Leica Biosystems). Samples were incubated in 0.9% H2O2 for 5 min, followed by 1 h of blocking in 1% BSA in PBS. […] Then, the samples were developed with the Betazoid DAB Chromogen Kit (Cat. BDB2004H; BIOCARE Medical), counter-stained with hematoxylin and mounted with synthetic resin solution (Entallan.107960; Merck).

CCD-18Co = tested on: CCD-18Co; set-up: method as in PMID 30382908; conditions: CCD-18Co healthy cell line; cited from earlier work
micronuclei = conditions: mice, 30 mg/kg; cited from earlier work
[2] = tested on: CMT93 (mice colorectal cancer) allograft tumors; set-up: method as in PMID 19569179; conditions: 30 min post-injection; cited from earlier work
HCT116 [3] = experiment: Cell uptake, internalization and radiation absorbed dose to the nucleus; format: cell-based, human; conditions: for total uptake in the cell membrane (of the total radioactivity): 1.44 Bq/cell
Experimental: (§1) The HCT116, LoVo and SW620 cells were seeded in 48-well tissue culture plates at a density of 10^5 cells/well. After 24 h, the cells were exposed to 1.44 Bq/cell of ^131I-C19 (200 μL) at 37 °C for 1, 3 and 5 h. After treatment, two washes (1 mL of ice-cold PBS) were performed. For the calculation of the cell uptake, the cells in each well were treated (at room temperature for 5 min) with 500 μL of glycine buffer (50 mM, pH 2.8). Then, this fraction was removed, and the radioactivity was measured in a NaI (Tl) detector (BCL, San Rafael CA, USA). To evaluate the ^131I-C19 internalization, the cells were incubated with 1 mL of NaOH 0.3 M (at room temperature for 10 min). Once more, the radioactivity was measured in a NaI (Tl) detector (BCL, San Rafael CA, USA). A 100% standard solution (200 μL) of ^131I-C19 was also measured (n = 5). The uptake (%) (plasmatic membrane) and internalization (%) (cytoplasm) were used to obtain the radiation absorbed dose.
(§2) For estimation of the radiation absorbed doses to the HCT116, LoVo and SW620 cells’ nuclei, Equation (1) was used:(1) DN←source=(NCS×DFN←CS)+(NCy×DFN←Cy) where DN←source denotes the mean absorbed dose to the nucleus from source regions (i.e., cell surface—CS; cytoplasm—Cy); NCS and NCy are the total nuclear transformations occurring in the membrane and cytoplasm, respectively, calculated from the mathematical integration (from t = 0 to t = ∞) of the activity estimated in the internalization and cell uptake experiments; DFN←CS and DFN←Cy represent the dose factors specific for [^131I] from the cell surface (plasmatic membrane) and cytoplasm regions to the nucleus configuration. The dose factor geometries were obtained from S values (HCT116 cell radius = 10 μm, nucleus radius = 5 μm; LoVo and SW620 cell radius = 10 μm, nucleus radius = 6 μm).

LoVo [4] = experiment: as above; format: cell-based, human; conditions: for total uptake in the cell membrane (of the total radioactivity): 1.44 Bq/cell
Experimental: as §1, §2

SW620 [5] = experiment: as above; format: cell-based, human; conditions: for total uptake in the cell membrane (of the total radioactivity): 1.44 Bq/cell
Experimental: as §1, §2

γ-H2AX foci in HCT116 = experiment: DNA double-stranded breaks, γ-H2AX foci assay; format: cell-based, human
Experimental: (§3) For the evaluation of DNA double-stranded breaks (DSBs), the phosphorylation of the Ser-139 gamma histone variant H2AX (γH2AX) was used as a biomarker. Cells, diluted to a suitable concentration, were grown on a glass slide after exposure to I-C19 or ^131I-labeled C19 (1.8, 6.8 and 8.8 µM for the cell lines LoVo, SW620 and HCT116, respectively) for 3 h. The anti-phospho-histone H2A.X (ser139) (1:200; CST, Boston, MA, USA) antibody was used as the primary antibody. The Alexa-488-conjugated anti-rabbit IgG was used for the visualization of γH2AX. […] To quantify the foci, clear and easily distinguishable dots were counted. At least 30 cells were imaged per slide, and the average number of foci per cell was calculated.

γ-H2AX foci in LoVo = experiment: DNA double-stranded breaks, γ-H2AX foci assay; format: cell-based, human; conditions: 1.8 µM, 3 h
Experimental: as §3

γ-H2AX foci in SW620 = experiment: DNA double-stranded breaks, γ-H2AX foci assay; format: cell-based, human; conditions: SW620, 6.8 µM, 3 h
Experimental: as §3

[6] = tested on: colorectal cancer cell lines; experiment: Cell uptake, initial; format: cell-based, human; conditions: before the 3 h increase
Experimental: as §1

[7] = Biodistribution and biokinetic models; format: in vivo, Nu/Nu mice with LoVo xenograft tumors
Experimental: ^131I-C19 was intraperitoneally injected (200 µL, 5 MBq (135 µCi/mice)) into nu/nu mice. The mice (n = 3) were euthanized at 0.5, 1, 3, 5, 24, 48, 92 and 144 h post-injection. Whole tumor, lung, liver, pancreas, spleen, kidney, large intestine (colon) and blood were rinsed and placed into pre-weighed plastic test tubes. The activity was determined in a NaI(Tl) detector (Canberra) along with three 0.5 mL aliquots of the diluted standard, representing 100% of the injected activity and used for radioactive decay correction. Mean activity values in each organ were correlated with those of the standard (representing the initial injected activity) to obtain the percentage of injected dose (% ID) at different times. The % ID values of each organ or tumor were input into the Olinda/EXM 2.0 software and adjusted to exponential functions (first-order kinetics) to obtain biokinetic models corrected by radioactive decay ( qh(t) ) (Equation (2)), which corresponded to the I-C19 compound. Likewise, the Ah(t) functions, which corresponded to the ^131I-C19 biokinetic models, were obtained considering λeff as =λB+λR , where the biological constant is represented by λB and the ^131I − radioactive decay constant is λR (Equation (3)). (2) qh(t)=Ah(t)×e^λR = Be^(−λBb)t+Ce^(−λBc)t+De^(−λBd)t (3) Ah(t)=Be^−(λBb+λR)t+Ce^−(λBc+λR)t+De^−(λBd+λR)t

HCT116 [8] = experiment: XTT cell viability; format: cell-based, human; conditions: HCT116, 8.8 µM, 1.44 Bq/cell, 72 h
Experimental: (§4) The human CRC cell lines, LoVo (ATCC® CCL-229™), SW620 (ATCC® CCL-227™) and HCT116 (ATCC® CCL-247™), were acquired from ATCC and cultured in F12K medium (Kaighn’s Modification of Ham’s F-12 Medium), DMEM-F12 medium and RPMI-1640 medium, (ATCC, Manassas, VA, USA), respectively. The human colorectal fibroblast CCD-18Co line was grown in an EMEM medium (ATCC, Manassas, VA, USA). The media were added with 10% fetal bovine serum and a 1% penicillin/streptomycin solution. Cells were incubated at 37 °C in a humidified atmosphere of 5% CO2.
(§5) The CCD-18Co, SW620, LoVo and HCT116 cell lines were plated in 96-well plates at a density of 10^4 cells/well for 24 h to allow for adherence. Then, the cells were treated with the I-C19 compound for 72 h. Cell viability was evaluated by the XTT (2,3-bis[2-methoxy-4-nitro-5-sulfophenyl]-2H-tetrazolium-5-carboxyanilide) assay kit (Roche, Germany), based on to the manufacturer’s instructions. The required I-C19 concentration, which produced fifty percent cell death at 72 h, was calculated by fitting a model with Prism software (GraphPad Software, San Diego, CA, USA).
(§6) For the assessment of dual therapy, beta radiation emission from ^131I-labeled C19 was also evaluated. The mitochondrial dehydrogenase activity in living HCT116, LoVo and SW620 cells was considered to measure the contribution of ^131I beta radiation to cell death, and the cell viability analysis was carried out after exposure to concentrations ten times lower than the IC50 obtained for each cancer cell line (8.8, 1.8 and 6.8 µM, respectively). Cell viability was evaluated by the XTT (2,3-bis[2-methoxy-4-nitro-5-sulfophenyl]-2H-tetrazolium-5-carboxyanilide) assay kit (Roche, Germany), based on to the manufacturer’s instructions. Briefly, colorectal cancer cell lines at a density of 10^4 cells/well were seeded in 96-well microtiter plates. The viability after treatment was measured 72 h (incubation in 5% CO2, 85% humidity and 37 °C). The absorbance in each well was recorded in a microplate reader (Epoch; BioTek Instruments; Winooski, VT, USA) at 450 nm. […]

LoVo [9] = experiment: XTT cell viability; format: cell-based, human; conditions: 1.8 µM, 1.44 Bq/cell, 72 h
Experimental: as §4, §5, §6

SW620 [10] = experiment: XTT cell viability; format: cell-based, human; conditions: SW620, 6.8 µM, 1.44 Bq/cell, 72 h
Experimental: as §4, §5, §6

O=c1[nH]cc(F)c(=O)[nH]1 [5-Fu, 5-fluorouracil, reference compound]
frequency of micronucleated polychromatic erythrocytes (MNPCEs) ([1]; 15 mg/kg single intraperitoneal injection): 27 ± 4

COc1ccc(CN[C@@H](C)C(=O)Nc2cc(Cl)ccc2Cl)cc1OC [C19, (2S)-N-(2,5-dichlorophenyl)-2-[(3,4-dimethoxyphenyl)methylamine]propanamide]
percentage of colon adenocarcinoma (colon adenocarcinoma; 30 mg/kg intraperitoneally every day for 12 days (vehicle 7–8%)): 5–6%
CEA marker, IHC (colon adenocarcinoma; 30 mg/kg, 12 days (vehicle 65%)): 12.5 % of neoplastic tissue
IC50 (CCD-18Co): 60.8 µM
frequency of micronucleated polychromatic erythrocytes (MNPCEs) ([1]; 30 mg/kg single intraperitoneal injection, not significant): 12 ± 1

O=P1(N(CCCl)CCCl)NCCCO1 (stereo not drawn) [CP, Cyclophosphamide]
induction of micronuclei (micronuclei): strong

[125I-].[Na+] [Na[^125I]]
activity in tumor tissue [2]: 9.1 % ID/g

COc1ccc(CNC(C)C(=O)Nc2cc([131I])ccc2[131I])cc1OC (stereo not drawn) [^131I-C19]
internalized activity into the cytoplasm (HCT116 [3]; HCT116, 3 h): 2.45 ± 0.21%
total uptake in the cell membrane (of the total radioactivity) (HCT116 [3]; HCT116, 3 h): 43.6 ± 4.7%
internalized activity into the cytoplasm (HCT116 [3]; HCT116, 5 h): 1.63 ± 0.05%
total uptake in the cell membrane (of the total radioactivity) (HCT116 [3]; HCT116, 5 h): 1.63 ± 0.34%
internalized activity into the cytoplasm (LoVo [4]; 3 h): 2.90 ± 0.82%
total uptake in the cell membrane (of the total radioactivity) (LoVo [4]; 3 h): 40.2 ± 6.4%
internalized activity into the cytoplasm (LoVo [4]; 5 h): 0.30 ± 0.04%
total uptake in the cell membrane (of the total radioactivity) (LoVo [4]; 5 h): 1.80 ± 0.18%
internalized activity into the cytoplasm (SW620 [5]; SW620, 3 h): 2.66 ± 0.30%
total uptake in the cell membrane (of the total radioactivity) (SW620 [5]; SW620, 3 h): 45.6 ± 6.7%
internalized activity into the cytoplasm (SW620 [5]; SW620, 5 h): 1.44 ± 0.14%
total uptake in the cell membrane (of the total radioactivity) (SW620 [5]; SW620, 5 h): 25.62 ± 4.71%
γ-H2AX foci, ^131I-C19 vs. I-C19 at the same concentration (γ-H2AX foci in HCT116; HCT116, 8.8 µM, 3 h): almost three times more γ-H2AX foci
level of DSBs relative to the control (γ-H2AX foci in HCT116; HCT116, exposure to ^131I beta radiation): six times higher than the control
γ-H2AX foci increase, ^131I-C19 vs. I-C19 at the same concentration (γ-H2AX foci in LoVo): 2.1 times
γ-H2AX foci increase, ^131I-C19 vs. I-C19 at the same concentration (γ-H2AX foci in SW620): 2.3 times
initial uptake [6]: 3.28–3.6%
activity concentration in the tumor tissue ([7]; LoVo tumor, after 1 h): 4.4 % ID/g
route of excretion ([7]; biodistribution, 5 MBq intraperitoneal): renal and hepatobiliary excretion
remaining fraction of activity cleared slowly from the blood ([7]; intraperitoneal, fitted biexponential model): 10.2%
cell viability compared to unlabeled I-C19 at the same concentration (HCT116 [8]): viability significantly decreased
cell viability compared to unlabeled I-C19 at the same concentration (LoVo [9]): viability significantly decreased
cell viability compared to unlabeled I-C19 at the same concentration (SW620 [10]): viability significantly decreased
